Reference: the supplement of paper PMC10307832

Legend:
Experiment in all cases: relative viability (nuclei count vs DMSO), 5 days (fraction); higher = more cells survive
[1] = system: PC-3 [JPC-3]
In short: (§1)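 Values are medians from duplicate plates. Each reflects relative viability, defined as the nuclei count of treated wells over that of vehicle wells. Lung cancer cell lines in 1536-well plates were pin-tool dosed one day after seeding with one drug alone or with a fixed anchor-drug dose plus five library-drug doses (not always all listed) in √10 steps, then fixed, stained and imaged at 4× after 5 days.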

[2] = system: HCC-827
In short: as §1

[3] = system: LU99A
In short: as §1

[4] = system: NCI-H2126
In short: as §1

[5] = system: BEN
In short: as §1

[6] = system: HCC-366
In short: as §1

[7] = system: HCC-15
In short: as §1

[8] = system: NCI-H1993
In short: as §1

[9] = system: LCLC-97TM1
In short: as §1

[10] = system: NCI-H2087
In short: as §1

[11] = system: NCI-H727
In short: as §1

[12] = system: NCI-H2170
In short: as §1

[13] = system: LXF-289
In short: as §1

[14] = system: HARA
In short: as §1

[15] = system: LC-2-ad
In short: as §1

[16] = system: CAL-12T
In short: as §1

[17] = system: PC-14
In short: as §1

[18] = system: HOP-62
In short: as §1

[19] = system: HCC-44
In short: as §1

Work on Cc1cnc(-c2cnc(NCCNc3ccc(C#N)cn3)nc2-c2ccc(Cl)cc2Cl)[nH]1 + NC(=O)Nc1cc(-c2cccc(F)c2)sc1C(=O)N[C@H]1CCCNC1 [AZD7762] (partner 0.2 µM) yielded a relative viability ([1]; first compound 0.08 µM) of 0.805, a relative viability ([1]; first compound 0.253 µM) of 0.761 and a relative viability ([1]; first compound 0.8 µM) of 0.799. It also gave a relative viability ([1]; first compound 2.53 µM) of 0.725, a relative viability ([2]; first compound 0.08 µM) of 0.242 and a relative viability ([2]; first compound 0.253 µM) of 0.169. The relative viability ([2]; first compound 0.8 µM) was 0.193, the relative viability ([2]; first compound 2.53 µM) was 0.171 and the relative viability ([3]; first compound 0.08 µM) was 0.393. It also gave a relative viability ([3]; first compound 0.253 µM) of 0.368, a relative viability ([3]; first compound 0.8 µM) of 0.333 and a relative viability ([3]; first compound 2.53 µM) of 0.389. It also gave a relative viability ([4]; first compound 0.08 µM) of 1.03, a relative viability ([4]; first compound 0.253 µM) of 0.939 and a relative viability ([4]; first compound 0.8 µM) of 0.984. It also gave a relative viability ([4]; first compound 2.53 µM) of 1.02, a relative viability ([5]; first compound 0.08 µM) of 0.714 and a relative viability ([5]; first compound 0.253 µM) of 0.699. The relative viability ([5]; first compound 0.8 µM) was 0.726, the relative viability ([5]; first compound 2.53 µM) was 0.736 and the relative viability ([6]; first compound 0.08 µM) was 0.284. The relative viability ([6]; first compound 0.253 µM) was 0.202, the relative viability ([6]; first compound 0.8 µM) was 0.197 and the relative viability ([6]; first compound 2.53 µM) was 0.0746. For the same molecule, the relative viability ([7]; first compound 0.08 µM) was 1.17, the relative viability ([7]; first compound 0.253 µM) was 0.968 and the relative viability ([7]; first compound 0.8 µM) was 1.2. For the same molecule, the relative viability ([7]; first compound 2.53 µM) was 1.13, the relative viability ([8]; first compound 0.08 µM) was 0.918 and the relative viability ([8]; first compound 0.253 µM) was 0.683. For the same molecule, the relative viability ([8]; first compound 0.8 µM) was 0.703, the relative viability ([8]; first compound 2.53 µM) was 0.9 and the relative viability ([9]; first compound 0.08 µM) was 0.269. It also gave a relative viability ([9]; first compound 0.253 µM) of 0.186, a relative viability ([9]; first compound 0.8 µM) of 0.15 and a relative viability ([9]; first compound 2.53 µM) of 0.235. For the same molecule, the relative viability ([10]; first compound 0.08 µM) was 1.3, the relative viability ([10]; first compound 0.8 µM) was 1.3 and the relative viability ([10]; first compound 2.53 µM) was 1.17. The relative viability ([11]; first compound 0.08 µM) was 0.621, the relative viability ([11]; first compound 0.253 µM) was 0.547 and the relative viability ([11]; first compound 0.8 µM) was 0.574. It also gave a relative viability ([11]; first compound 2.53 µM) of 0.651, a relative viability ([12]; first compound 0.08 µM) of 1.01 and a relative viability ([12]; first compound 0.8 µM) of 0.774. It also gave a relative viability ([12]; first compound 2.53 µM) of 0.695, a relative viability ([13]; first compound 0.08 µM) of 1.16 and a relative viability ([13]; first compound 0.253 µM) of 1.05. It also gave a relative viability ([13]; first compound 0.8 µM) of 1.18, a relative viability ([13]; first compound 2.53 µM) of 1.19 and a relative viability ([14]; first compound 0.08 µM) of 0.297. The relative viability ([14]; first compound 0.253 µM) was 0.191, the relative viability ([14]; first compound 0.8 µM) was 0.37 and the relative viability ([14]; first compound 2.53 µM) was 1. It also gave a relative viability ([15]; first compound 0.08 µM) of 0.851, a relative viability ([15]; first compound 0.8 µM) of 0.687 and a relative viability ([15]; first compound 2.53 µM) of 0.841. For the same molecule, the relative viability ([16]; first compound 0.08 µM) was 0.586, the relative viability ([16]; first compound 0.253 µM) was 0.567 and the relative viability ([16]; first compound 0.8 µM) was 0.544. For the same molecule, the relative viability ([16]; first compound 2.53 µM) was 0.693, the relative viability ([17]; first compound 0.08 µM) was 0.347 and the relative viability ([17]; first compound 0.253 µM) was 0.316. The relative viability ([17]; first compound 0.8 µM) was 0.365, the relative viability ([17]; first compound 2.53 µM) was 0.392 and the relative viability ([18]; first compound 0.08 µM) was 0.817. For the same molecule, the relative viability ([18]; first compound 0.253 µM) was 0.383, the relative viability ([18]; first compound 0.8 µM) was 0.45 and the relative viability ([18]; first compound 2.53 µM) was 0.748. The relative viability ([19]; first compound 0.08 µM) was 1.05, the relative viability ([19]; first compound 0.253 µM) was 1.02 and the relative viability ([19]; first compound 0.8 µM) was 1.06. It also gave a relative viability ([19]; first compound 2.53 µM) of 1.15.
